{
  "source": "patent US8017124B2",
  "about": "“Use of DMBT1 for capturing sulphate and phosphate group exposing agents” (priority 2004, dated 2011)",
  "key": {"[1]": {"tested_on": "Gram-positive S. mutans and Gram-negative E. coli bacteria", "assay": "Peptide bacterial binding and aggregation studies", "details": "synthetic peptides", "protocol": "For quantitative measurements of bacterial aggregation, we added 200 μl peptide stock solution (1 mg/ml in 10% DMSO) diluted with 300 μl TBS containing 0.1% v/v Tween 20 and 1 mM CaCl2 (TBS-TC) to 500 μl of the respective bacterial suspensions to obtain final peptide concentrations of […]. As controls, we used bacterial suspensions, to which 200 μl 10% (v/v %) DMSO in H2O and 300 μl TBS-TC were added. Bacterial aggregation was monitored by measuring the optical density at 700 nm in intervals of 1 min for 1 h in a spectrophotometer (UVICON 930, Kontron Instruments). For the semi-quantitative high-throughput competition assays, we first determined the allowed pH range for DMBT1pbs1-mediated aggregation of S. gordonii and E. coli by using TBS-TC adjusted with either HCl or NaOH. […] For monitoring competitive effects, we preincubated 20 μl of the DMBT1pbs1 stock solution (20 μg) with 20 μl of the respective substance solutions in 48-well microtiter plates at room temperature (RT) for 2 min. As reference served 20 μl 10% (v/v) DMSO solution in H2O mixed with 20 μl of the solvents of the respective substances. Afterwards, 100 μl of S. gordonii or E. coli (resuspended in TBS-TC or TBS-T, respectively, for the calcium-free assays) solution was added simultaneously to each well using a multichannel pipette. […]"}, "[2]": {"target": "HIV-gp120 (Human immunodeficiency virus type 1 group M subtype B, UniProt P04578)", "details": "S. gordonii binding to immobilized SRCRP2 in absence and presence of HIV-gp120", "excerpt": "Left panel: peptide SRCRP2 (containing DMBT1pbs1) was immobilized on ELISA plates and bacterial binding (S. gordonii) was quantified in the absence and presence of different concentrations of HIV-gp120."}},
  "data": [
    {"sequence": "GRVEVLYRGSW [DMBT1pbs1]", "values": [
      {"measurement": "bacterial binding and aggregation activity (Gram-positive and -negative bacteria)", "setting": "[1]", "result": "sufficient and necessary for interaction with Gram-positive and -negative bacteria"},
      {"measurement": "HIV-gp120 binding activity", "setting": "[2]", "result": "exerts HIV-gp120 binding activity"}
    ]}
  ]
}
